Structures can show the parent of a compound that is named as a salt.
Legend:
[1] = molecular target: Histamine, H3; assay: Histamine, H3; [3H]N-a-MeHistamine; type: binding; settings: reference compound, QA/QC; read-out: Ref Kj
[2] = molecular target: T1, Histamine, H1 (Bos taurus, UniProt P30546); assay: Histamine, H1; [3H]Pyrilamine; type: binding
T1 construct: no other source notation after assay name denotes animal cell or animal tissue source; from tissue; host or cells: animal cell or animal tissue, not specified
T1 sequence (P30546 whole entry): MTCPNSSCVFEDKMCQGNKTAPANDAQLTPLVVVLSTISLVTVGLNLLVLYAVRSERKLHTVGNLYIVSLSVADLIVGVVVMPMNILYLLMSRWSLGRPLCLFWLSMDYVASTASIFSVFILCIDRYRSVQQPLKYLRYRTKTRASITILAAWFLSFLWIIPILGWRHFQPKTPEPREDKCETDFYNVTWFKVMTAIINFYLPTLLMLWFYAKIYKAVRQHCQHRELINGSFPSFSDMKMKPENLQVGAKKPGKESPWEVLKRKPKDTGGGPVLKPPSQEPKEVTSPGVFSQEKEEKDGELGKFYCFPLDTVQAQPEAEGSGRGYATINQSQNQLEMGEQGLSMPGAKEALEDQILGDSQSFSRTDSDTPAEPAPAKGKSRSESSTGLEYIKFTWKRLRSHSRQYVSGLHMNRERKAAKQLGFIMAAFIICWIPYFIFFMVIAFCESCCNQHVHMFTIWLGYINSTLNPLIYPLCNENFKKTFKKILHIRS

[3] = molecular target: Imidazoline, I1; assay: Imidazoline, I1; [125I]-Clonidine; type: binding; settings: reference compound, QA/QC; read-out: Ref Kj
[4] = molecular target: Melatonin; assay: Melatonin; [125I]-2-Iodomelatonin; type: binding; settings: reference compound, QA/QC; read-out: Ref Kj
[5] = molecular target: Glucocorticoid (UniProt P06536); settings: read-out: Ref Kj
Chain of Glucocorticoid (P06536 whole entry): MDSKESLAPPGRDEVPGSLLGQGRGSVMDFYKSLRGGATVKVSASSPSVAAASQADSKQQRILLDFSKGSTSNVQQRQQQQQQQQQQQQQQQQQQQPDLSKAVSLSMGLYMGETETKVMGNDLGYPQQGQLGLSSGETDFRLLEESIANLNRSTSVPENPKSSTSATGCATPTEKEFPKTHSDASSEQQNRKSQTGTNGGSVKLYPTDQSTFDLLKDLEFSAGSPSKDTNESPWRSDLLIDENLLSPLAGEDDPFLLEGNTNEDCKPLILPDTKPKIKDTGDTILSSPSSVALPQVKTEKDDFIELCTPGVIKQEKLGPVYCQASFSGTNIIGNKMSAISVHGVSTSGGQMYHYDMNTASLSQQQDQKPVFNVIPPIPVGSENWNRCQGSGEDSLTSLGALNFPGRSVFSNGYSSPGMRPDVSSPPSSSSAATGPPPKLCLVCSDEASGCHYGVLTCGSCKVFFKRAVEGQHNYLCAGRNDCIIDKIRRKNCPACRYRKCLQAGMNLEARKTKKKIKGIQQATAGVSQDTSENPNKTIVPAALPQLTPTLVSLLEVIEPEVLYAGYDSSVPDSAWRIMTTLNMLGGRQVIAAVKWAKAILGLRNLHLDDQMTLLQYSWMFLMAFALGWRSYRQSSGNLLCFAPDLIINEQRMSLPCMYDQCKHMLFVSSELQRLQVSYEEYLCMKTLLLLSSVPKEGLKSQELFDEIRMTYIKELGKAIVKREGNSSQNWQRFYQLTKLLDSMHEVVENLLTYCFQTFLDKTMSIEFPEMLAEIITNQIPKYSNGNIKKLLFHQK

[6] = molecular target: Imidazoline, I2, central; assay: Imidazoline, I2, central; [3H]2-BFI; type: binding; settings: reference compound, QA/QC; read-out: Ref Kj

Q: With `CNCCc1cnc[nH]1` [N-a-Methylhistamine (NAMH), N-a-Methylhistamine] as the compound, how does the Ki [1] read?
A: 1.31 nM

Q: With `Cc1ccc(/C(=C\CN2CCCC2)c2ccccn2)cc1` [Triprolidine HCl] as the compound, how does the Ki [2] read?
A: 3.6 nM

Q: How did the Ki [3] turn out when `Clc1cc(I)cc(Cl)c1NC1=NCCN1` [Iodoclonidine] was run?
A: 7.89 nM

Q: For `C[C@]12C=CC(=O)C=C1CC[C@H]1[C@@H]3C[C@@H](O)[C@](O)(C(=O)CO)[C@@]3(C)C[C@H](O)[C@@]12F` [Triamcinolone], which Ki [5] is on record?
A: 1.74 nM

Q: `c1ccc2oc(C3=NCCN3)cc2c1` [2-BFI] was tested. Which Ki [6] did it give?
A: 0.054 nM

— patent US20020187514A1 (priority 1999, published 2002)
